The record followed here is article PMC3278406 (PLoS ONE, 2012).

“Also recorded” adds a separate entry of the source.

The experiment addresses Stx2 toxoid (Escherichia phage 933W, UniProt P09386). The format is binding, Escherichia coli O157:H7.

Chain of Stx2 toxoid (P09386 whole entry, looked up): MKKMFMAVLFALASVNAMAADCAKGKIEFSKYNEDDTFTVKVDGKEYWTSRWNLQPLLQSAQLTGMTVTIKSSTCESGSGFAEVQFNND

As for `CC(C)CCC[C@@H](C)[C@H]1CC[C@H]2[C@@H]3CC=C4C[C@@H](O)CC[C@]4(C)[C@H]3CC[C@]12C` [cholesterol], the “change of Stx2 binding to Gb3 in the absence of cholesterol” value was “statistically significant decrease” and the “change of Stx2 binding to Gb3 in the presence of cholesterol alone” value is “statistically significant increase”.

Consider `CCCCCCCCCCCCC/C=C/[C@@H](O)[C@@H](N)CO[C@@H]1O[C@H](CO)[C@@H](O[C@@H]2O[C@H](CO)[C@H](O[C@H]3O[C@H](CO)[C@H](O)[C@H](O)[C@H]3O)[C@H](O)[C@H]2O)[C@H](O)[C@H]1O` [Lyso-Gb3, Lyso-globotriaosylsphingosine], for which the Stx2 binding result is “did not bind”.

In the case of Galactosyl ceramide [Gal-Cer], the Stx2 binding result was “failed to support binding”.

As for Asialo GM1 gangliosides [aGM1], the Stx2 binding result is “failed to support binding”.

Regarding Globotetraosyl ceramide [Gb4], the Stx2 binding result was “increased binding”. Besides, the Kd (read-out: apparent Kd of Stx2) turned out to be 14 nM.

As to Lactosyl ceramide [Lac-Cer], the Stx2 binding entry was “failed to support binding”.

As for “Globotriaosyl ceramide, Ceramide trihexoside [Gb3]”, the Stx2 binding entry is listed as “poor binding; also recorded: increased binding” and the “concentration of Stx2 needed to reach saturated binding” value is given as “above 1 µM”.

Turning to `CC(C)CCC[C@@H](C)[C@H]1CC[C@H]2[C@@H]3CC[C@H]4CCCC[C@]4(C)[C@H]3CC[C@]12C` [5αCh, 5-α-Cholestane], the “Stx2 binding to Gb3 in the presence of sterol and PC” value is “failed to support binding”.

In the case of Asialo GM2 gangliosides [aGM2], the Stx2 binding result was “failed to support binding”.

On to Glucosyl ceramide [Glc-Cer], for which the Stx2 binding result is recorded as “failed to support binding”.
